Earlier results as cited in US12576027B2, “Diclofenac topical formulation with a high absorption rate” (IBSA INSTITUT BIOCHIMIQUE SA, priority 2021, dated 2026).

Settings: orally administered

SMILES: O=C(O)Cc1ccccc1Nc1c(Cl)cccc1Cl [diclofenac, 2-[(2,6-dichlorophenyl)-amino]benzeneacetic acid]
- absorption: almost complete
- time to high hematic peaks from administration: ≤ 2 h
